Several values for one entry are separate records, joined by “and”; a condition that tells them apart may be missing. Equal entries are not always repeated. Where two headings read alike, the source gives them in different places.
Key:
Enterococcus faecium = test: microbe, parasite or virus in culture; assay type: cell-based; conditions: acetate formulation
[1] = tested on: Acinetobacter baumannii-calcoaceticus complex; test: microbe, parasite or virus in culture; assay type: cell-based; conditions: acetate formulation
Klebsiella pneumoniae = tested on: Klebsiella pneumoniae; parameters: MIC: unit not given beside the values; conditions: strain ATCC 43816, sponsor, acetate formulation
Escherichia coli = test: microbe, parasite or virus in culture; assay type: cell-based; conditions: acetate formulation
Staphylococcus aureus = test: microbe, parasite or virus in culture; assay type: cell-based; conditions: acetate formulation, in µg/mL
Pseudomonas aeruginosa = test: microbe, parasite or virus in culture; assay type: cell-based; conditions: acetate formulation, in µg/mL
[2] = tested on: E. cloacae species complex; test: microbe, parasite or virus in culture; assay type: cell-based, Enterobacter cloacae; conditions: acetate formulation
Streptococcus pneumoniae = test: microbe, parasite or virus in culture; assay type: cell-based; conditions: acetate formulation, in µg/mL
Enterococcus faecalis = test: microbe, parasite or virus in culture; assay type: cell-based; conditions: acetate formulation, in µg/mL

Sequence: RYVRCRCI [Peptide P194]
- MIC (Enterococcus faecium; strain 1196024, VRE, replicate R1): 2 µg/mL
- MIC (Enterococcus faecium; strain 1196024, VRE, replicate R2): 2 µg/mL
- MIC (Enterococcus faecium; strain 1208412, VRE, replicate R1): 2 µg/mL
- MIC (Enterococcus faecium; strain 1208412, VRE, replicate R2): 1 µg/mL
- MIC (Enterococcus faecium; strain 1222807, VSE, replicate R1): 2 µg/mL
- MIC (Enterococcus faecium; strain 1222807, VSE, replicate R2): 1 µg/mL
- MIC ([1]; strain 1204424, non-MDR, replicate R1): 8 µg/mL
- MIC ([1]; strain 1204424, non-MDR, replicate R2): 8 µg/mL
- MIC ([1]; strain 1208060, non-MDR, replicate R1): 8 µg/mL
- MIC ([1]; strain 1208060, non-MDR, replicate R2): 4 µg/mL
- MIC ([1]; strain 1215088, MDR, replicate R1): 8 µg/mL
- MIC ([1]; strain 1215088, MDR, replicate R2): 4 µg/mL
- MIC ([1]; strain 1215098, MDR, replicate R1): 16 µg/mL
- MIC ([1]; strain 1215098, MDR, replicate R2): 8 µg/mL
- MIC ([1]; strain 1216520, non-MDR, replicate R1): 8 µg/mL
- MIC ([1]; strain 1216520, non-MDR, replicate R2): 4 µg/mL
- MIC (Klebsiella pneumoniae; replicate R1): 8 (3×) and 4
- MIC (Klebsiella pneumoniae; replicate R2): 8 and 4 (2×)
- MIC (Escherichia coli; strain 1191008, MDR, ESBL, replicate R1): 8 µg/mL
- MIC (Escherichia coli; strain 1191008, MDR, ESBL, replicate R2): 8 µg/mL
- MIC (Escherichia coli; strain 1231795, MDR, ESBL, replicate R1): 8 µg/mL
- MIC (Escherichia coli; strain 1231795, MDR, ESBL, replicate R2): 8 µg/mL
- MIC (Escherichia coli; strain 1232428, MDR (COL-R), ESBL, replicate R1): 16 µg/mL
- MIC (Escherichia coli; strain 1232428, MDR (COL-R), ESBL, replicate R2): 8 µg/mL
- MIC (Escherichia coli; strain 1248389, ESBL, replicate R1): 8 µg/mL
- MIC (Escherichia coli; strain 1248389, ESBL, replicate R2): 8 µg/mL
- MIC (Escherichia coli; strain ATCC 25922, QC, replicate R1): 8 (3×) and 4
- MIC (Escherichia coli; strain ATCC 25922, QC, replicate R2): 4 and 8 (2×)
- MIC (Escherichia coli; strain ATCC BAA-2452, NDM-1, replicate R1): 8 µg/mL
- MIC (Escherichia coli; strain ATCC BAA-2452, NDM-1, replicate R2): 4 µg/mL
- MIC (Staphylococcus aureus; strain 1124691, MRSA (USA300)/MDR, replicate R1): 32
- MIC (Staphylococcus aureus; strain 1182822, replicate R2): 32
- MIC (Staphylococcus aureus; strain 1189667, MRSA/MDR, replicate R1): 32
- MIC (Staphylococcus aureus; strain 1189667, MRSA/MDR, replicate R2): 16
- MIC (Staphylococcus aureus; strain 1189809, MRSA/MDR, replicate R1): 32
- MIC (Staphylococcus aureus; strain 1189809, MRSA/MDR, replicate R2): 32
- MIC (Staphylococcus aureus; strain 1190388, MRSA, replicate R1): 32
- MIC (Staphylococcus aureus; strain 1190388, MRSA, replicate R2): 16
- MIC (Staphylococcus aureus; strain 1221979, MRSA, replicate R1): 32
- MIC (Staphylococcus aureus; strain 1221979, MRSA, replicate R2): 32
- MIC (Staphylococcus aureus; strain ATCC 29213, QC, replicate R1): 32
- MIC (Staphylococcus aureus; strain ATCC 29213, QC, replicate R2): 32
- MIC (Pseudomonas aeruginosa; strain 1190985, non-MDR, replicate R1): 32
- MIC (Pseudomonas aeruginosa; strain 1190985, non-MDR, replicate R2): 32
- MIC (Pseudomonas aeruginosa; strain 1202638, MDR, replicate R1): 32
- MIC (Pseudomonas aeruginosa; strain 1202638, MDR, replicate R2): 32
- MIC (Pseudomonas aeruginosa; strain 1210081, non-MDR, replicate R1): 32
- MIC (Pseudomonas aeruginosa; strain 1210081, non-MDR, replicate R2): 32
- MIC (Pseudomonas aeruginosa; strain 1242554, non-MDR, replicate R1): 32
- MIC (Pseudomonas aeruginosa; strain 1242554, non-MDR, replicate R2): 16
- MIC (Pseudomonas aeruginosa; strain 1263496, MDR, replicate R1): 16
- MIC (Pseudomonas aeruginosa; strain 1263496, MDR, replicate R2): 8
- MIC (Pseudomonas aeruginosa; strain ATCC 27853, QC, replicate R1): 16
- MIC (Pseudomonas aeruginosa; strain ATCC 27853, QC, replicate R2): 8
- MIC ([2]; Enterobacter cloacae strain 1230117, non-MDR, replicate R1): 8 µg/mL
- MIC ([2]; Enterobacter cloacae strain 1230117, non-MDR, replicate R2): 8 µg/mL
- MIC ([2]; strain 1197959, non-MDR, replicate R1): 16 µg/mL
- MIC ([2]; strain 1197959, non-MDR, replicate R2): 16 µg/mL
- MIC ([2]; strain 1204419, non-MDR, replicate R1): 16 µg/mL
- MIC ([2]; strain 1204419, non-MDR, replicate R2): 16 µg/mL
- MIC ([2]; strain 1230601, non-MDR, replicate R1): 16 µg/mL
- MIC ([2]; strain 1230601, non-MDR, replicate R2): 8 µg/mL
- MIC ([2]; strain 1232701, MDR, replicate R1): 16 µg/mL
- MIC ([2]; strain 1232701, MDR, replicate R2): 16 µg/mL
- MIC (Streptococcus pneumoniae; strain 1200385, PEN-S, replicate R1): 32
- MIC (Streptococcus pneumoniae; strain 1200385, PEN-S, replicate R2): 32
- MIC (Streptococcus pneumoniae; strain 1219456, PEN-R, replicate R1): 32
- MIC (Streptococcus pneumoniae; strain 1219456, PEN-R, replicate R2): 32
- MIC (Streptococcus pneumoniae; strain 1219876, PEN-R, replicate R1): 32
- MIC (Streptococcus pneumoniae; strain 1219876, PEN-R, replicate R2): 32
- MIC (Streptococcus pneumoniae; strain 1223661, PEN-R, replicate R1): 32
- MIC (Streptococcus pneumoniae; strain 1223661, PEN-R, replicate R2): 32
- MIC (Streptococcus pneumoniae; strain 1227224, PEN-S, replicate R1): 16
- MIC (Streptococcus pneumoniae; strain 1227224, PEN-S, replicate R2): 32
- MIC (Streptococcus pneumoniae; strain ATCC 49619, QC, replicate R1): 16
- MIC (Streptococcus pneumoniae; strain ATCC 49619, QC, replicate R2): 16
- MIC (Enterococcus faecalis; strain 1204777, VRE, replicate R1): 4
- MIC (Enterococcus faecalis; strain 1204777, VRE, replicate R2): 2
- MIC (Enterococcus faecalis; strain 1211589, VRE, replicate R1): 4
- MIC (Enterococcus faecalis; strain 1211589, VRE, replicate R2): 2
- MIC (Enterococcus faecalis; strain ATCC 29212, QC, replicate R1): 4
- MIC (Enterococcus faecalis; strain ATCC 29212, QC, replicate R2): 4

— patent publication US20260078158A1, “COMPOSITIONS COMPRISING CXCL10-DERIVED PEPTIDES AND METHODS OF USE THEREOF” (priority 2022, published 2026)
